Here are results for three compounds from ChEMBL document CHEMBL6087428, “Discovery of potent and selective factor XIa inhibitors incorporating triazole-based benzoic acid as novel P2' fragments: Molecular dynamics simulations and anticoagulant activity” (Eur J Med Chem, 2025).

Experiment [1] is filed under the species Homo sapiens. Put plainly: Selectivity ratio of IC50 for human Factor Xa using Boc-Ile-Glu-Gly-Arg-AMC as substrate to IC50 for human Factor XIa using Boc-Glu(OBzl)-Ala-Arg-AMC.
For experiment [2], the species on record is Homo sapiens. Put plainly: Selectivity ratio of IC50 for human trypsin using Boc-Ile-Glu-Gly-Arg-AMC as substrate to IC50 for human Factor XIa using Boc-Glu(OBzl)-Ala-Arg-AMC.
The next experiment addresses Prothrombin (Homo sapiens, UniProt P00734). As to the kind of experiment: Inhibition of human thrombin using Boc-Asp(OBzl)-Pro-Arg-AMC as substrate incubated for 15 mins by fluorescence reader analysis.
Experiment [3] has as its target T1, Coagulation factor XI (Homo sapiens, UniProt P03951). Put plainly: Inhibition of human Factor XIa using Boc-Glu(OBzl)-Ala-Arg-AMC assessed as AMC release preincubated for 15 mins followed by substrate addition and measured after 10 mins by microplate fluorescence reader analysis.
Experiment [4] has as its system Plasma. As to the kind of experiment: Anticoagulant activity in citrated human pooled plasma assessed as prolongation of prothrombin time incubated for 3 mins by PT reagent based semi-automated coagulometric analysis. The experiment is classed as functional. The note with it: 0.05 h.
The target of experiment [5] is T2, Plasma kallikrein (Homo sapiens, UniProt P03952). Put plainly: Inhibition of human PKa using H-Pro-Phe-Arg-AMC as substrate incubated for 15 mins by fluorescence reader analysis.
For experiment [6], the species on record is Homo sapiens. Put plainly: Selectivity ratio of IC50 for human thrombin using Boc-Asp(OBzl)-Pro-Arg-AMC as substrate to IC50 for human Factor XIa using Boc-Glu(OBzl)-Ala-Arg-AMC.
For experiment [7], the system named is Plasma. Put plainly: Anticoagulant activity in citrated human pooled plasma assessed as prolongation of activated partial thromboplastin time incubated for 5 mins by aPTT reagent based semi-automated coagulometric analysis. The experiment is classed as functional.
Another experiment concerns the target Coagulation factor X (Homo sapiens, UniProt P00742). As to the kind of experiment: Inhibition of human Factor Xa using Boc-Ile-Glu-Gly-Arg-AMC as substrate incubated for 15 mins by fluorescence reader analysis.
In another experiment the target is Trypsin (Homo sapiens, UniProt P07477+P07478+P35030). As to the kind of experiment: Inhibition of human trypsin using Boc-Ile-Glu-Gly-Arg-AMC as substrate incubated for 15 mins by fluorescence reader analysis. It is filed as protein assay.
The target of experiment [8] is T1, Coagulation factor XI. As to the kind of experiment: Inhibition of Factor XIa (unknown origin).
The target of experiment [9] is T2, Plasma kallikrein. Put plainly: Inhibition of Pka (unknown origin).

The IC50 is the concentration at which inhibition is half-maximal.

T1 sequence (P03951 19-387 limits assumed): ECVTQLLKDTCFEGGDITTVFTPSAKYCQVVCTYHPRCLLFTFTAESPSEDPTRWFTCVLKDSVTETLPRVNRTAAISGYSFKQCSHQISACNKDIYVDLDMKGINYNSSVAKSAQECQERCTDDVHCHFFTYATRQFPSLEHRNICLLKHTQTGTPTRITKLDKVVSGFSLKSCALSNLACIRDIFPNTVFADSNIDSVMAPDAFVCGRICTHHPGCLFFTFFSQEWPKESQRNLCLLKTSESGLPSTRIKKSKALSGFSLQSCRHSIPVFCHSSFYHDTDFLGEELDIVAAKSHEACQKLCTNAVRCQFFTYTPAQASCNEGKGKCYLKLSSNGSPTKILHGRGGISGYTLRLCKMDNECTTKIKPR
T1 sequence (P03951 388-625 limits assumed): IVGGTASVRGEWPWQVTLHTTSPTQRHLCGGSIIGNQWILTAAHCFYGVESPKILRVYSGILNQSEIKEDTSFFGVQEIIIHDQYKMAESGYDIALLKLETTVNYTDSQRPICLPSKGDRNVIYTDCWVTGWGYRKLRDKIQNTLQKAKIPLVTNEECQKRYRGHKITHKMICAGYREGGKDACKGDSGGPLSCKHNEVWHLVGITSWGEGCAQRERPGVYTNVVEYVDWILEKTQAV
T2 sequence (P03952 20-390 limits assumed): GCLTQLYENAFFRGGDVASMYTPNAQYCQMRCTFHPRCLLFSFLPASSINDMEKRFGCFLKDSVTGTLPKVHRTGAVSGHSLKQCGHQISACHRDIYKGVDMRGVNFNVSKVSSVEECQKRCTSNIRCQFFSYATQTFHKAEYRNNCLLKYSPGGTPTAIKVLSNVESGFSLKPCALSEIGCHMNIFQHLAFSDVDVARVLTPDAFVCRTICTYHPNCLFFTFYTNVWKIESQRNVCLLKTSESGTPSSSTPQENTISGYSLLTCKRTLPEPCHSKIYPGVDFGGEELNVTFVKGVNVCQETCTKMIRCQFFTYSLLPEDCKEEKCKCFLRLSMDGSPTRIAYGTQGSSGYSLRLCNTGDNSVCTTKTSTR
T2 sequence (P03952 391-638 limits assumed): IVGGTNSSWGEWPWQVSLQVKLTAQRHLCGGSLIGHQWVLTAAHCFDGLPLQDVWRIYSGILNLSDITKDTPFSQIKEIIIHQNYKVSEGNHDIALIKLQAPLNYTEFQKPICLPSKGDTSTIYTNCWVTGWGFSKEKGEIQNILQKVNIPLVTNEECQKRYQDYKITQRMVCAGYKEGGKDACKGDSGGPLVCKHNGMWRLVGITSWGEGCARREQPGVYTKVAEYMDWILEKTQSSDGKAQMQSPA
Chain of Coagulation factor X (P00742 41-179 limits assumed): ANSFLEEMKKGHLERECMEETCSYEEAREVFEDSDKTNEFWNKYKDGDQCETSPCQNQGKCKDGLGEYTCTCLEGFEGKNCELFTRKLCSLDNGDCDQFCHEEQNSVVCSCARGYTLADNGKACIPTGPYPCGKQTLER
Chain of Coagulation factor X (P00742 235-488 limits assumed): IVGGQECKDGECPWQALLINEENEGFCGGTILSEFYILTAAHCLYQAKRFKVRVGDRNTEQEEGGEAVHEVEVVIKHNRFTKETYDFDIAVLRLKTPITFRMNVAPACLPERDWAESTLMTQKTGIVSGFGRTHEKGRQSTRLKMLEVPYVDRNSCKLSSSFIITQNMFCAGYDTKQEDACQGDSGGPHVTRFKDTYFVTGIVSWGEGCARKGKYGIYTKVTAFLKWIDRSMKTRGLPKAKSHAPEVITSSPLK

As to `COc1cn([C@@H](Cc2ccccc2)c2cn(-c3ccc(C(=O)O)cc3)nn2)c(=O)cc1-c1cc(Cl)ccc1-n1cc(Cl)nn1`, the Ratio IC50 was over 30000 in the experiment filed under Homo sapiens [1], over 9000 in the experiment listed under Homo sapiens [2] and over 16000 in the experiment filed under Homo sapiens [6]. The IC50 against Prothrombin was determined as 24.4 µM; at Coagulation factor XI [3], 0.00152 µM; against Plasma kallikrein [5], 0.0731 µM; at Coagulation factor X, 46.8 µM; against Trypsin, 14.1 µM. Besides, in the experiment with Plasma [4], the EC2 was over 100 µM. For the same compound, the EC1.5 in the experiment with Plasma [7] was 0.75 µM.

Consider `CCC(c1ccc2cc(C(=O)O)ccc2c1)n1cc(OC)c(-c2cc(Cl)ccc2-n2cc(C(F)(F)F)nn2)cc1=O` (configuration not stated), for which the 50% inhibitory concentration (IC50) against Coagulation factor XI [8] stood at 0.0866 µM; against Plasma kallikrein [9] it was 0.258 µM.

For `COc1cn([C@@H](Cc2ccccc2)c2cn(-c3ccc(C(=O)O)cc3)nn2)c(=O)cc1-c1cc(Cl)ccc1-n1cc(C(F)(F)F)nn1`, the Ratio IC50 in the experiment filed under Homo sapiens [1] was over 80000; in the experiment listed under Homo sapiens [2], over 10000; in the experiment listed under Homo sapiens [6], over 130000. Also, the IC50 against Prothrombin came out at 51 µM; at Coagulation factor XI [3], 0.00038 µM; against Plasma kallikrein [5] it was 0.0592 µM; against Coagulation factor X it was 31.6 µM; on Trypsin it was 16.5 µM. Besides, the EC2 in the experiment on Plasma [4] was over 100 µM. For the same compound, in the experiment with Plasma [7], the EC1.5 worked out at 0.55 µM.
